{"source": "ChEMBL document CHEMBL1140544", "about": "“Microbial transformation of three bufadienolides by Nocardia sp. and some insight for the cytotoxic structure-activity relationship (SAR)” (Bioorg Med Chem Lett, 2007)", "key": {"[1]": {"tested_on": "HepG2", "assay": "Cytotoxicity against human HepG2 cells", "assay_type": "functional, cell-based"}, "[2]": {"tested_on": "BGC-823", "assay": "Cytotoxicity against human BGC823 cells", "assay_type": "cell-based"}, "[3]": {"tested_on": "HeLa", "assay": "Cytotoxicity against human HeLa cells", "assay_type": "functional, cell-based"}}}
{"molecule": "CC(=O)O[C@H]1CC[C@@]2(C)[C@H](CC[C@@H]3[C@@H]2CC[C@]2(C)[C@@H](c4ccc(=O)oc4)CC[C@]32O)C1", "values": [{"measurement": "IC50", "setting": "[1]", "value": 0.74, "unit": "µM"}, {"measurement": "IC50", "setting": "[2]", "value": 0.7, "unit": "µM"}, {"measurement": "IC50", "setting": "[3]", "value": 1.14, "unit": "µM"}]}
{"molecule": "C[C@]12CC[C@H](O)C[C@H]1CC[C@@H]1[C@@H]2CC[C@]2(C)[C@@H](c3ccc(=O)oc3)CC[C@]12O", "note": "[BUFALIN]", "values": [{"measurement": "IC50", "setting": "[1]", "value": 0.64, "unit": "µM"}, {"measurement": "IC50", "setting": "[2]", "value": 0.99, "unit": "µM"}, {"measurement": "IC50", "setting": "[3]", "value": 0.73, "unit": "µM"}]}
{"molecule": "CC(=O)O[C@H]1CC[C@@]2(C)[C@H](CC[C@@H]3[C@@H]2CC[C@]2(C)[C@@H](c4ccc(=O)oc4)[C@@H](OC(C)=O)[C@H]4O[C@]342)C1", "values": [{"measurement": "IC50", "setting": "[1]", "value": 6.44, "unit": "µM"}, {"measurement": "IC50", "setting": "[2]", "value": 4.11, "unit": "µM"}, {"measurement": "IC50", "setting": "[3]", "value": 1.09, "unit": "µM"}]}
{"molecule": "CC(=O)O[C@H]1CC[C@@]2(C)[C@H](CC[C@@H]3[C@@H]2CC[C@]2(C)[C@@H](c4ccc(=O)oc4)C[C@H]4O[C@]342)C1", "values": [{"measurement": "IC50", "setting": "[1]", "value": "> 50", "unit": "µM"}, {"measurement": "IC50", "setting": "[2]", "value": 19.8, "unit": "µM"}, {"measurement": "IC50", "setting": "[3]", "value": "> 50", "unit": "µM"}]}
{"molecule": "CC(=O)O[C@H]1C(=O)[C@@]2(C)[C@H]([C@H](OC(=O)c3ccccc3)[C@]3(O)C[C@H](OC(=O)[C@H](O)[C@@H](NC(=O)c4ccccc4)c4ccccc4)C(C)=C1C3(C)C)[C@]1(OC(C)=O)CO[C@@H]1C[C@@H]2O", "note": "[PACLITAXEL]", "values": [{"measurement": "IC50", "setting": "[1]", "value": 0.82, "unit": "µM"}, {"measurement": "IC50", "setting": "[2]", "value": 1.15, "unit": "µM"}, {"measurement": "IC50", "setting": "[3]", "value": 0.02, "unit": "µM"}]}
{"molecule": "C[C@]12CC[C@H](O)C[C@H]1CC[C@@H]1[C@@H]2CC[C@]2(C)[C@@H](c3ccc(=O)oc3)C[C@H]3O[C@]132", "note": "[BUFOGENIN]", "values": [{"measurement": "IC50", "setting": "[1]", "value": "> 50", "unit": "µM"}, {"measurement": "IC50", "setting": "[2]", "value": 7.89, "unit": "µM"}, {"measurement": "IC50", "setting": "[3]", "value": "> 50", "unit": "µM"}]}
{"molecule": "CC(=O)O[C@H]1CC[C@@]2(C)[C@H](CC[C@@H]3[C@@H]2CC[C@]2(C)[C@@H](c4ccc(=O)oc4)[C@@H](OC(C)=O)[C@@H](O)[C@]32O)C1", "values": [{"measurement": "IC50", "setting": "[1]", "value": 3.1, "unit": "µM"}, {"measurement": "IC50", "setting": "[2]", "value": 3.37, "unit": "µM"}, {"measurement": "IC50", "setting": "[3]", "value": 0.45, "unit": "µM"}]}
{"molecule": "CC(=O)O[C@H]1[C@H]2O[C@]23[C@@H]2CC[C@@H]4C[C@@H](O)CC[C@]4(C)[C@H]2CC[C@]3(C)[C@H]1c1ccc(=O)oc1", "note": "[CINOBUFAGIN]", "values": [{"measurement": "IC50", "setting": "[1]", "value": 5.2, "unit": "µM"}, {"measurement": "IC50", "setting": "[2]", "value": 8.5, "unit": "µM"}, {"measurement": "IC50", "setting": "[3]", "value": 0.76, "unit": "µM"}]}
